# Data reported in US7262202B2, “Inhibitors of cyclin dependent kinases as anti-cancer agent” (Cyclacel Limited, priority 2001, dated 2007).
# Like-named read-outs stand apart in the source and are kept apart here.
# What was measured:
# human tumour cell lines = assay: cell-based anti-proliferative assays
# Excerpt: These assays, including methods for their performance, are described in more detail in Example 3. Using such cell line and enzymes assays it may be determined whether a compound is anti-proliferative in the context of the present invention.
# Selected compounds from the above examples were subjected to a standard cellular proliferation assay using a range of different human tumour cell lines. Standard 72-h MTT (thiazolyl blue; 3-[4,5-dimethylthiazol-2-yl]-2,5-diphenyltetrazolium bromide) assays were performed (Haselsberger, K.; Peterson, D. C.; Thomas, D. G.; Darling, J. L. Anti Cancer Drugs 1996, 7, 331–8; Loveland, B. E.; Johns, T. G.; Mackay, I. R.; Vaillant, F.; Wang, Z. X.; Hertzog, P. J. Biochemistry International 1992, 27, 501–10). Human tumour cell lines were obtained from the ATCC (American Type Culture Collection, 10801 University Boulevard, Manessas, Va. 20110-2209, USA).
# Saos-2 = assay: 72-h MTT cellular proliferation assay, Saos-2; type: cell-based; settings: human tumour cell line Saos-2, 72-h MTT; read-out: Cytotoxicity (IC50, μM) Saos-2
# Excerpt: (§1) Selected compounds from the above examples were subjected to a standard cellular proliferation assay using a range of different human tumour cell lines.
# HT29 = assay: 72-h MTT cellular proliferation assay, HT29; type: cell-based; settings: HT-29; human tumour cell line HT29, 72-h MTT; read-out: Cytotoxicity (IC50, μM) HT29
# Excerpt: as §1
# CDK2/cyclin E = target: T1, CDK2/cyclin E (Homo sapiens, UniProt P24941); assay: CDK2/Cyclin E kinase assay (GST-Rb phosphorylation, radiolabelled ATP); type: biochemical;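 also: enzyme was His-tagged CDK2/cyclin E co-expressed in baculovirus-infected Sf9 insect cells and purified over a metal-chelate column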
# T1 construct: His; made in house; host or cells: Sf9 insect cells (baculovirus)
# A549 = assay: 72-h MTT cellular proliferation assay, A549; type: cell-based; settings: human tumour cell line A549, 72-h MTT; read-out: Cytotoxicity (IC50, μM) A549
# Excerpt: as §1
# [1] = bound stated, (±0.05), read-out: IC50 for cdk2/cyclinE
Compound,anti-proliferative activity in cell-based assays (human tumour cell lines),IC50 (Saos-2),IC50 (HT29),melting point,IC50 (CDK2/cyclin E; [1]),IC50 (CDK2/cyclin E; read-out: CDK2/cyclin E (IC50)),IC50 (A549)
"Cc1c[nH]c(C)c1-c1ccnc(Nc2ccc(C(F)(F)F)cc2)n1 [Compound 12, [4-(2,4-Dimethyl-1H-pyrrol-3-yl)-pyrimidin-2-yl]-(4-trifluoromethyl-phenyl)-amine]",particularly effective anti-proliferative agents,17 µM,3.1 µM,165.6 to 167.9 °C,< 1000 nM,900 nM,15 µM
"Cc1[nH]c(C#N)c(C)c1-c1ccnc(Nc2ccc(C(F)(F)F)cc2)n1 [Compound 34, 3,5-Dimethyl-4-[2-(4-trifluoromethyl-phenylamino)-pyrimidin-4-yl]-H-pyrrole-2-carbonitrile]",particularly effective anti-proliferative agents,3.4 µM,0.95 µM,195.6 to 198.9 °C,< 500 nM,–,3.64 µM
"Cc1ccc(Nc2nccc(-c3c(C)[nH]c(C#N)c3C)n2)cc1I [Compound 38, 4-[2-(3-Iodo-4-methyl-phenylamino)-pyrimidin-4-yl]-3,5-dimethyl-1H-pyrrole-2-carbonitrile]",particularly effective anti-proliferative agents,3.12 µM,0.72 µM,189.5 to 191.7 °C,< 1000 nM,–,3.6 µM
"Cc1cc(Nc2nccc(-c3c(C)[nH]c(C#N)c3C)n2)ccc1Cl [Compound 39, 4-[2-(4-Chloro-3-methyl-phenylamino)-pyrimidin-4-yl]-3,5-dimethyl-1H-pyrrole-2-carbonitrile]",particularly effective anti-proliferative agents,5.88 µM,3.27 µM,194.2 to 197.9 °C,< 1000 nM,1020 nM,4.37 µM
"Cc1ccc(Nc2nccc(-c3c(C)[nH]c(C#N)c3C)n2)cc1F [Compound 42, 4-[2-(3-Fluoro-4-methyl-phenylamino)-pyrimidin-4-yl]-3,5-dimethyl-1H-pyrrole-2-carbonitrile]",particularly effective anti-proliferative agents,2.23 µM,0.28 µM,177.7 to 179.9 °C,< 1000 nM,–,1.49 µM
"Cc1[nH]c(C#N)c(C)c1-c1ccnc(Nc2ccc(N(C)C)cc2)n1 [Compound 43, 4-[2-(4-Dimethylamino-phenylamino)-pyrimidin-4-yl]-3,5-dimethyl-1H-pyrrole-2-carbonitrile]",particularly effective anti-proliferative agents,1.5 µM,0.17 µM,190.6 to 193.7 °C,< 1000 nM,–,1.41 µM
"Cc1[nH]c([N+](=O)[O-])c(C)c1-c1ccnc(Nc2ccc(N(C)C)cc2)n1 [Compound 48, N-[4-(2,4-Dimethyl-5-nitro-1H-pyrrol-3-yl)-pyrimidin-2-yl]-N′,N′-dimethyl-benzene-1,4-diamine]",particularly effective anti-proliferative agents,2.65 µM,0.61 µM,265 to 268 °C,< 1000 nM,–,3.05 µM
"CCN(CC)Cc1[nH]c(C)c(-c2ccnc(Nc3ccc(F)cc3)n2)c1C [Compound 53, [4-(5-Diethylaminomethyl-2,4-dimethyl-1H-pyrrol-3-yl)-pyrimidin-2-yl]-(4-fluoro-phenyl)-amine]",particularly effective anti-proliferative agents,1.61 µM,1.31 µM,–,< 1000 nM,870 nM,0.97 µM
"Cc1[nH]c(CN2CCN(C)CC2)c(C)c1-c1ccnc(Nc2ccc(F)cc2)n1 [Compound 56, {4-[2,4-Dimethyl-5-(4-methyl-piperazin-1-ylmethyl)-1H-pyrrol-3-yl]-pyrimidin-2-yl}-(4-fluoro-phenyl)-amine]",particularly effective anti-proliferative agents,14.2 µM,5.09 µM,–,< 5000 nM,1510 nM,13.8 µM
